Results as given in ChEMBL document CHEMBL5303304, “EUbOPEN Chemogenomics Library - IncuCyte” (2023).

Legend:
Assay type in all cases: toxicity, cell-based
HEK-293T = experiment: Incucyte cell viability with HEK293T; conditions: human, 10 µM, compound concentration 10 uM
Fibroblast = experiment: Incucyte cell viability with human fibroblast; conditions: 10 µM, compound concentration 10 uM
U2OS = experiment: Incucyte cell viability with U2OS; conditions: human, 10 µM, compound concentration 10 uM
Note: unitless GR value; below 1 slowed growth and below 0 cell loss.

| Structure (SMILES) | Growth Rate (HEK-293T; 12 h, replicate number 2) | Growth Rate (HEK-293T; 18 h, replicate number 1) | Growth Rate (HEK-293T; 18 h, replicate number 2) | Growth Rate (HEK-293T; 24 h, replicate number 2) | Growth Rate (Fibroblast; 18 h, replicate number 2) | Growth Rate (Fibroblast; 24 h, replicate number 1) | Growth Rate (Fibroblast; 24 h, replicate number 2) | Growth Rate (U2OS; 0 h, replicate number 1) | Growth Rate (U2OS; 12 h, replicate number 1) | Growth Rate (U2OS; 12 h, replicate number 2) | Growth Rate (U2OS; 18 h, replicate number 1) | Growth Rate (U2OS; 18 h, replicate number 2) | Growth Rate (U2OS; 24 h, replicate number 2) | Growth Rate (HEK-293T; 6 h, replicate number 1) | Growth Rate (HEK-293T; 6 h, replicate number 2) | Growth Rate (Fibroblast; 6 h, replicate number 2) | Growth Rate (Fibroblast; 12 h, replicate number 1) | Growth Rate (Fibroblast; 12 h, replicate number 2) | Growth Rate (Fibroblast; 18 h, replicate number 1) | Growth Rate (U2OS; 6 h, replicate number 1) | other results |
| --- | --- | --- | --- | --- | --- | --- | --- | --- | --- | --- | --- | --- | --- | --- | --- | --- | --- | --- | --- | --- | --- |
| CN(C)c1cc2c(Nc3ccc4c(cnn4Cc4ccccc4)c3)ncnc2cn1 [GW282974X] | 0.95 | 0.8 | 0.77 | 0.61 | 0.86 | 0.77 | 0.69 | -0.05 | 0.77 | 0.87 | 0.83 | 0.91 | 0.65 | – | – | – | – | – | – | – | Growth Rate (HEK-293T; 0 h, replicate number 1): -1; Growth Rate (HEK-293T; 0 h, replicate number 2): -0.53; Growth Rate (HEK-293T; 24 h, replicate number 1): 0.59; Growth Rate (Fibroblast; 0 h, replicate number 1): -1; Growth Rate (U2OS; 6 h, replicate number 2): 0.77 |
| CC(C)(C)C1CCc2c(sc(NC(=O)c3ccco3)c2C(=O)O)C1 (stereo not drawn) | -0.11 | -0.24 | -0.17 | -0.13 | – | – | – | – | – | 0.8 | – | 0.79 | 0.84 | -0.05 | 0 | -0.97 | -1 | 0.65 | -0.68 | -0.02 | Growth Rate (HEK-293T; 0 h, replicate number 2): 0.67; Growth Rate (HEK-293T; 12 h, replicate number 1): -0.04; Growth Rate (HEK-293T; 24 h, replicate number 1): -0.21; Growth Rate (Fibroblast; 0 h, replicate number 1): -0.35; Growth Rate (Fibroblast; 0 h, replicate number 2): -0.91; Growth Rate (Fibroblast; 6 h, replicate number 1): 0.79; Growth Rate (U2OS; 0 h, replicate number 2): -1; Growth Rate (U2OS; 6 h, replicate number 2): 0.95 |
| O=c1cc(-c2ccccc2)oc2c1ccc1ccccc12 [ALPHA-NAPHTHOFLAVONE] | 0.81 | 0.95 | 0.8 | 0.88 | – | 0.65 | – | – | 0.67 | 0.63 | 0.92 | 0.66 | – | 0.31 | 0.53 | – | – | – | – | -0.07 | Growth Rate (Fibroblast; 0 h, replicate number 1): 0.97; Growth Rate (U2OS; 0 h, replicate number 2): -0.73; Growth Rate (U2OS; 6 h, replicate number 2): 0.41 |
| CC(=O)O.Cc1cc2c(ncn2C2(C)CN(C(=O)c3ccn(CC4CCN([C@H]5C=CCCCC5)CC4)c3)C2)c(N)n1 | – | – | – | – | 0.98 | – | – | 0.51 | – | – | – | – | – | – | – | 0.25 | 0.9 | 0.83 | 0.86 | 0.96 | Growth Rate (HEK-293T; 0 h, replicate number 1): -0.66; Growth Rate (Fibroblast; 0 h, replicate number 2): 0.45; Growth Rate (U2OS; 24 h, replicate number 1): 0.75 |
| COc1ccc(-c2cc3c(C)nc(N)nc3n([C@H]3CC[C@H](OCCO)CC3)c2=O)cn1 [PF-04691502] | -0.6 | -0.17 | -0.38 | -0.25 | -0.29 | -0.23 | -0.32 | -0.97 | – | – | 0.65 | 0.83 | 0.62 | -0.19 | -0.8 | 0.33 | 0.03 | -0.28 | -0.18 | – | Growth Rate (HEK-293T; 12 h, replicate number 1): -0.29; Growth Rate (HEK-293T; 24 h, replicate number 1): -0.14; Growth Rate (Fibroblast; 0 h, replicate number 1): -1; Growth Rate (Fibroblast; 6 h, replicate number 1): 0.8; Growth Rate (U2OS; 24 h, replicate number 1): 0.6 |
| CC(Oc1cc(-c2cnn(C3CCNCC3)c2)cnc1N)c1c(Cl)ccc(F)c1Cl (stereo not drawn) | -0.35 | -0.49 | -0.18 | -0.11 | -0.52 | -0.22 | -0.44 | -1 | 0.53 | 0.65 | 0.4 | 0.45 | 0.5 | -0.85 | -0.51 | -0.95 | -0.94 | -0.64 | -0.67 | – | Growth Rate (HEK-293T; 12 h, replicate number 1): -0.78; Growth Rate (HEK-293T; 24 h, replicate number 1): -0.28; Growth Rate (U2OS; 24 h, replicate number 1): 0.39 |
| Cc1cc(OCCC(C)(C)O)cc(C)c1-c1ccc(F)c2c1CC[C@H]2Oc1ccc2c(c1)OC[C@H]2CC(=O)O | 0.86 | 0.98 | – | – | 0.57 | – | 0.67 | 0.95 | 0.97 | 0.87 | 0.74 | 0.88 | 0.84 | 0.79 | – | – | – | -0.01 | – | 0.51 | Growth Rate (HEK-293T; 0 h, replicate number 1): 0.74; Growth Rate (HEK-293T; 0 h, replicate number 2): 0.8; Growth Rate (HEK-293T; 12 h, replicate number 1): 0.91; Growth Rate (Fibroblast; 0 h, replicate number 1): -0.99; Growth Rate (Fibroblast; 6 h, replicate number 1): 0.77; Growth Rate (U2OS; 24 h, replicate number 1): 0.98 |
| CCC(=O)O[C@@H](OP(=O)(CCCCc1ccccc1)CC(=O)N1C[C@H](C2CCCCC2)C[C@H]1C(=O)[O-])C(C)C.[Na+] (stereo partly drawn) | 0.04 | 0.77 | 0.29 | 0.49 | – | – | – | 0.02 | 0.78 | – | 0.78 | – | – | 0.41 | -0.23 | 0.94 | 0.72 | – | – | 0.56 | Growth Rate (HEK-293T; 0 h, replicate number 2): -1; Growth Rate (HEK-293T; 12 h, replicate number 1): 0.66; Growth Rate (HEK-293T; 24 h, replicate number 1): 0.84; Growth Rate (Fibroblast; 0 h, replicate number 2): -0.2; Growth Rate (U2OS; 24 h, replicate number 1): 0.77 |
| CN(C)C/C=C/C(=O)Nc1cc2c(Nc3ccc(F)c(Cl)c3)ncnc2cc1OC[C@@H]1CCCO1 | -0.34 | -0.27 | -0.29 | -0.22 | -0.29 | -0.26 | -0.29 | – | -0.23 | -0.07 | -0.23 | -0.08 | -0.19 | -0.57 | -0.55 | -0.39 | -0.37 | -0.36 | -0.32 | -0.2 | Growth Rate (HEK-293T; 12 h, replicate number 1): -0.36; Growth Rate (HEK-293T; 24 h, replicate number 1): -0.2; Growth Rate (Fibroblast; 0 h, replicate number 2): 0.77; Growth Rate (Fibroblast; 6 h, replicate number 1): -0.42; Growth Rate (U2OS; 0 h, replicate number 2): 0.7; Growth Rate (U2OS; 6 h, replicate number 2): -0.14; Growth Rate (U2OS; 24 h, replicate number 1): -0.17 |
| CSc1nc2c(c(=O)n(C)c(=O)n2C)n1C | 0.78 | – | 1 | – | – | 0.71 | 0.92 | 0.57 | – | 0.74 | – | 0.86 | 0.97 | – | -0.14 | -0.57 | 0.58 | – | 0.87 | 0.84 | Growth Rate (HEK-293T; 0 h, replicate number 1): 0.12; Growth Rate (Fibroblast; 0 h, replicate number 1): -1; Growth Rate (Fibroblast; 0 h, replicate number 2): -0.52; Growth Rate (Fibroblast; 6 h, replicate number 1): 0.03; Growth Rate (U2OS; 6 h, replicate number 2): 0.49 |
| Cc1nnc2n1-c1sc3c(c1C(c1ccccc1Cl)=NC2)CC(C(=O)N1CCOCC1)C3 (stereo not drawn) [BEPAFANT] | – | – | 0.99 | – | 0.79 | 0.87 | 0.92 | – | 0.9 | – | – | – | – | – | – | – | – | 0.71 | 0.77 | 0.52 | Growth Rate (HEK-293T; 0 h, replicate number 1): 0.58; Growth Rate (HEK-293T; 0 h, replicate number 2): 0; Growth Rate (Fibroblast; 0 h, replicate number 2): -0.12; Growth Rate (Fibroblast; 6 h, replicate number 1): 0.34; Growth Rate (U2OS; 6 h, replicate number 2): 0.91; Growth Rate (U2OS; 24 h, replicate number 1): 0.89 |
